Assay results: patent US7928140B2, “Benzothiazole PI3 kinase modulators for cancer treatment” (Amgen Inc., priority 2007, dated 2011)

Assays:
PI3K α = target: T1, PI3K α (Homo sapiens, UniProt P42336); assay: In vitro PI3 kinase enzyme assay (alpha), ATP loss, bioluminescence; format: biochemical; conditions: read-out: PI3Kα ATP loss IC50;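 further: purified p110α/p85 heterodimer acting on PtdIns(4,5)P2 at room temperature, remaining ATP read by luminescence, inhibition scaled between compound-free wells with and without enzyme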
T1 construct: Full length p110 subunits of PI3K α, β and δ, N-terminally labeled with polyHis tag; polyHis (N); made in house; host or cells: Sf9 insect cells (baculovirus)

PI3K β = target: T2, PI3K β (Homo sapiens, UniProt P42338); assay: In vitro PI3 kinase enzyme assay (beta), ATP loss, bioluminescence; format: biochemical; conditions: read-out: PI3Kβ ATP loss IC50;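 further: purified p110β/p85 heterodimer with PtdIns(4,5)P2 as acceptor, incubated at room temperature, leftover ATP read by luminescence, inhibition scaled to compound-free wells with and without enzyme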
T2 construct: Full length p110 subunits of PI3K α, β and δ, N-terminally labeled with polyHis tag; polyHis (N); made in house; host or cells: Sf9 insect cells (baculovirus)
T2 sequence (P42338 whole entry): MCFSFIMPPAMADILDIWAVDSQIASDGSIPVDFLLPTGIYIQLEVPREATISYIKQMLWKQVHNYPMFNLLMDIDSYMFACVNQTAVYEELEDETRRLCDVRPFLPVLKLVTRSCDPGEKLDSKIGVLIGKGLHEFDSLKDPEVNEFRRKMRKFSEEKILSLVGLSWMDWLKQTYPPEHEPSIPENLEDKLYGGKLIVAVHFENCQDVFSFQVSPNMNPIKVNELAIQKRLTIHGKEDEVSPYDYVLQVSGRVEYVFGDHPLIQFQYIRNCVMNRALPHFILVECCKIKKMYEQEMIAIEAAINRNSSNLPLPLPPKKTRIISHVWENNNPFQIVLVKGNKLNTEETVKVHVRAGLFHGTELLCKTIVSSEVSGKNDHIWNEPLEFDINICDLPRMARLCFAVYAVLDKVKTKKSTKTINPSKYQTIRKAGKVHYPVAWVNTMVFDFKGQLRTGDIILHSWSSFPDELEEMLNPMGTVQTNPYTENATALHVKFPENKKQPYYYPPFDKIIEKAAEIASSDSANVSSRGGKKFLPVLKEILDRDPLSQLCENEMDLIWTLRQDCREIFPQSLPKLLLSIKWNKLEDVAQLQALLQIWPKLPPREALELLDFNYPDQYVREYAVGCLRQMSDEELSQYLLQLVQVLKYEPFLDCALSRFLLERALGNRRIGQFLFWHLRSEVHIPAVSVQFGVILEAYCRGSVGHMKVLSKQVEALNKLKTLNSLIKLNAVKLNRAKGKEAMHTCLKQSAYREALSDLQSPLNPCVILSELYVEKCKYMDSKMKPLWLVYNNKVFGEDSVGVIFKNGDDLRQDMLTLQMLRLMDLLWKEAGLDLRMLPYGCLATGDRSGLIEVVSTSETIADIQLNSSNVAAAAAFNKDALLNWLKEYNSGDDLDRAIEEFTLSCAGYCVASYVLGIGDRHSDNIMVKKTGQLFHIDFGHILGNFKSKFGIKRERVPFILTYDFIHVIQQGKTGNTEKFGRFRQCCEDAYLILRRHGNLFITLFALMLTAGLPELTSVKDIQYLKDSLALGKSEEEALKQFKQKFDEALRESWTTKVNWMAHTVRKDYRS
T2 sequence (P27986 whole entry partner): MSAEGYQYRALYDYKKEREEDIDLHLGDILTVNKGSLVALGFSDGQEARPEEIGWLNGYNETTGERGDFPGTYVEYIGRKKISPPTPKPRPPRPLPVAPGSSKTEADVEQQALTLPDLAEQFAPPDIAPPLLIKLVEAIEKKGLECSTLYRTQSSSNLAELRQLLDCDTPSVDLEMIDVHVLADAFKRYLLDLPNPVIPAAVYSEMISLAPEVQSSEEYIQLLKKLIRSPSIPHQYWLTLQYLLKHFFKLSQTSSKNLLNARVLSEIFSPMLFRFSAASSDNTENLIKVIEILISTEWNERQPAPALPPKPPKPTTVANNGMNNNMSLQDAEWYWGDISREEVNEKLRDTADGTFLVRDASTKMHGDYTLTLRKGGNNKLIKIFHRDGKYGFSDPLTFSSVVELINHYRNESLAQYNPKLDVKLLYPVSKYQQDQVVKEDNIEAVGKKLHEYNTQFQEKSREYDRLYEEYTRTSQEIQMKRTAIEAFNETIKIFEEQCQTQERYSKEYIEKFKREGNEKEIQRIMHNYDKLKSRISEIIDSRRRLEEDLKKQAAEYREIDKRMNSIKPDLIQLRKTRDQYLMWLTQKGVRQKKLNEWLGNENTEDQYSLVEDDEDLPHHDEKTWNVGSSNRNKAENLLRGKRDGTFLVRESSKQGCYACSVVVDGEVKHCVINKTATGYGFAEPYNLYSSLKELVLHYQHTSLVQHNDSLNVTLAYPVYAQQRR

T1 sequence (P42336 whole entry, species assumed): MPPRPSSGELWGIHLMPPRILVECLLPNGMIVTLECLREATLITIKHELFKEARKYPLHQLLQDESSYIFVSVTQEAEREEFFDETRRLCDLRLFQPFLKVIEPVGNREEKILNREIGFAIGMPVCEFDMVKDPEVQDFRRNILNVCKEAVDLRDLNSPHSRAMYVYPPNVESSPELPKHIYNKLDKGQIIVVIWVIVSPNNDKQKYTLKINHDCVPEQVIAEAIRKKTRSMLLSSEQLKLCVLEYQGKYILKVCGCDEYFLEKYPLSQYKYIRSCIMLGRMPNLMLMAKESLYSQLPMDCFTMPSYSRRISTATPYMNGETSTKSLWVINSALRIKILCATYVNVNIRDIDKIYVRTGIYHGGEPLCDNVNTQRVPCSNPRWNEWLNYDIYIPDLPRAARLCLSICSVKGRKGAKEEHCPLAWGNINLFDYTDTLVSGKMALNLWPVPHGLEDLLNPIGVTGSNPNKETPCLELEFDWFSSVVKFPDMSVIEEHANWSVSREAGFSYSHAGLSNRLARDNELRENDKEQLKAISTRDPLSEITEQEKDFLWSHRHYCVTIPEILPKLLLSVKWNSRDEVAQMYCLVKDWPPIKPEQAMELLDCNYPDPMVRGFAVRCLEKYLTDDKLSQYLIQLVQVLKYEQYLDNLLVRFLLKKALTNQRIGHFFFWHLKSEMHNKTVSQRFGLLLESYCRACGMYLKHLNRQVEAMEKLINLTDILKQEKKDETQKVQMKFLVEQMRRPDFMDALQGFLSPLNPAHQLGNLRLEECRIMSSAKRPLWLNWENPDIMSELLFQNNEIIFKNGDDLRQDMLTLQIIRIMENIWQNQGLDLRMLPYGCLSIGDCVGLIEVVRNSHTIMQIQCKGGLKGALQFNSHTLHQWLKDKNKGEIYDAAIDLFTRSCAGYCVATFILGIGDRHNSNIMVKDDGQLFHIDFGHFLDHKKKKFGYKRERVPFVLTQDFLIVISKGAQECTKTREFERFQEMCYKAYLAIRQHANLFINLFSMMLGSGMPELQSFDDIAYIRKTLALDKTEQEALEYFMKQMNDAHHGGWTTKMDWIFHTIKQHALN
T1 sequence (P27986 whole entry partner, species assumed): as the sequence (P27986 whole entry partner) above

Compound | IC50 (PI3K α) [µM] | IC50 (PI3K β) [µM]
CC(=O)Nc1nc2ccc(-c3ccnc(N4CCCC4c4ccccc4C)n3)cc2s1 (racemic) [Example 262, N-(6-(2-(2-o-tolylpyrrolidin-1-yl)pyrimidin-4-yl)benzo[d]thiazol-2-yl)acetamide] | 1.56 | 0.777
CC(=O)Nc1nc2ccc(-c3ccnc(N4CCCC4c4ccccc4)n3)cc2s1 (racemic) [Example 266, N-(6-(2-(2-phenylpyrrolidin-1-yl)pyrimidin-4-yl)benzo[d]thiazol-2-yl)acetamide] | 2.62 | 1.61
COCCCOc1nccc(-c2ccc3nc(NC(C)=O)sc3c2)n1 [Example 5, N-(6-(2-(3-methoxypropoxy)-4-pyrimidinyl)-1,3-benzothiazol-2-yl)acetamide] |  | > 40
CC(=O)Nc1nc2ccc(-c3ccnc(OCCCN(C)C)n3)cc2s1 [Example 8] | 11.1 | > 40
CC(=O)Nc1nc2ccc(-c3ccnc(OCCN(C)C)n3)cc2s1 [Example 9] | 6.07 | > 40
CC(=O)Nc1nc2ccc(-c3ccnc(OCCN4CCOCC4)n3)cc2s1 [Example 11] |  | > 40
CC(=O)Nc1nc2ccc(-c3ccnc(Cc4ccccc4)n3)cc2s1 [Example 13, N-(6-(2-Benzylpyrimidin-4-yl)benzo[d]thiazol-2-yl)acetamide] | 4.48 | > 40
CC(=O)Nc1nc2ccc(-c3ccnc(CCCc4ccccc4)n3)cc2s1 [Example 14, N-(6-(2-(3-phenylpropyl)-4-pyrimidinyl)-1,3-benzothiazol-2-yl)acetamide] | 2.75 | 10.7
CC(=O)Nc1nc2ccc(-c3ccnc(CCc4ccccc4)n3)cc2s1 [Example 15, N-(6-(2-(2-phenylethyl)-4-pyrimidinyl)-1,3-benzothiazol-2-yl)acetamide] |  | 6.47
CC(=O)Nc1nc2ccc(-c3ccnc(OCCc4cccnc4)n3)cc2s1 [Example 18, N-(6-(2-(2-(3-pyridinyl)ethoxy)-4-pyrimidinyl)-1,3-benzothiazol-2-yl)acetamide] | 1.1 | 32.2
CC(=O)Nc1nc2ccc(-c3ccnc(Sc4ccccc4)n3)cc2s1 [Example 21, N-(6-(2-(phenylsulfanyl)-4-pyrimidinyl)-1,3-benzothiazol-2-yl)acetamide] |  | 0.309
CC(=O)Nc1nc2ccc(-c3ccnc(OCc4ccc5[nH]ccc5c4)n3)cc2s1 [Example 24, N-(6-(2-(1H-indol-5-ylmethoxy)-4-pyrimidinyl)-1,3-benzothiazol-2-yl)acetamide] | 8.03 | 8.86
CC(=O)Nc1nc2ccc(-c3ccnc(OCC4CCN(C)CC4)n3)cc2s1 [Example 25, N-(6-(2-((1-methyl-4-piperidinyl)methoxy)-4-pyrimidinyl)-1,3-benzothiazol-2-yl)acetamide] | 10.7 | 26.7
COc1ccccc1Sc1nccc(-c2ccc3nc(NC(C)=O)sc3c2)n1 [Example 28, N-(6-(2-((2-methoxyphenyl)sulfanyl)-4-pyrimidinyl)-1,3-benzothiazol-2-yl)acetamide] |  | 0.491
CC(=O)Nc1ccc(Sc2nccc(-c3ccc4nc(NC(C)=O)sc4c3)n2)cc1 [Example 29, N-(4-((4-(2-(acetylamino)-1,3-benzothiazol-6-yl)-2-pyrimidinyl)sulfanyl)phenyl)acetamide] | 0.333 | 2.4
CC(=O)Nc1nc2ccc(-c3ccnc(Sc4ccccc4C(C)(C)C)n3)cc2s1 [Example 30, N-(6-(2-((2-tert-butylphenyl)sulfanyl)-4-pyrimidinyl)-1,3-benzothiazol-2-yl)acetamide] | 0.908 | 1.42
CC(=O)Nc1nc2ccc(-c3ccnc(OC4CCN(C)CC4)n3)cc2s1 [Example 31, N-(6-(2-((1-methyl-4-piperidinyl)oxy)-4-pyrimidinyl)-1,3-benzothiazol-2-yl)acetamide] | 2.38 | > 40
CC(=O)Nc1nc2ccc(-c3ccnc(OCCCN4CCOC4=O)n3)cc2s1 [Example 32, N-(6-(2-(3-(2-oxo-1,3-oxazolidin-3-yl)propoxy)-4-pyrimidinyl)-1,3-benzothiazol-2-yl)acetamide] | 0.601 | > 40
CC(=O)Nc1nc2ccc(-c3ccnc(Oc4ccccc4)n3)cc2s1 [Example 33, N-(6-(2-phenoxy-4-pyrimidinyl)-1,3-benzothiazol-2-yl)acetamide] |  | 5.97
CC(=O)Nc1nc2ccc(-c3ccnc(SCc4ccccc4C)n3)cc2s1 [Example 37, N-(6-(2-((2-methylbenzyl)sulfanyl)-4-pyrimidinyl)-1,3-benzothiazol-2-yl)acetamide] | 0.119 | 4.12
COc1ccc(COc2nccc(-c3ccc4nc(NC(C)=O)sc4c3)n2)cc1 [Example 38, N-(6-(2-((4-methoxybenzyl)oxy)-4-pyrimidinyl)-1,3-benzothiazol-2-yl)acetamide] | 0.126 | 

Compound | IC50 (PI3K α) [µM] | IC50 (PI3K β) [µM]
COc1cccc(Sc2nccc(-c3ccc4nc(NC(C)=O)sc4c3)n2)c1 [Example 41, N-(6-(2-((3-methoxyphenyl)sulfanyl)-4-pyrimidinyl)-1,3-benzothiazol-2-yl)acetamide] | 0.192 | 0.126
Nc1nc2ccc(-c3ccnc(NCCCc4ccccc4)n3)cc2s1 [Example 45, 6-(2-(3-Phenylpropylamino)pyrimidin-4-yl)benzo[d]thiazol-2-amine] | 1.97 | 0.455
COCCCNc1nccc(-c2ccc3nc(NC(C)=O)sc3c2)n1 [Example 46, N-(6-(2-((3-methoxypropyl)amino)-4-pyrimidinyl)-1,3-benzothiazol-2-yl)acetamide] | 1.21 | 20.4
COCCNc1nccc(-c2ccc3nc(N)sc3c2)n1 [Example 48, 6-(2-((2-methoxyethyl)amino)-4-pyrimidinyl)-1,3-benzothiazol-2-amine] | 18.1 | > 40
CC(=O)Nc1nc2ccc(-c3ccnc(N(C)C)n3)cc2s1 [Example 52, N-(6-(2-(dimethylamino)-4-pyrimidinyl)-1,3-benzothiazol-2-yl)acetamide] | 2.58 | > 40
CC(=O)Nc1nc2ccc(-c3ccnc(O)n3)cc2s1 [Example 53, N-(6-(2-hydroxy-4-pyrimidinyl)-1,3-benzothiazol-2-yl)acetamide] | 7.98 | > 40
O=C(CN1CCOCC1)Nc1nc2ccc(-c3ccnc(OCc4ccccc4)n3)cc2s1 [Example 54, N-(6-(2-(benzyloxy)-4-pyrimidinyl)-1,3-benzothiazol-2-yl)-2-(4-morpholinyl)acetamide] | 7.33 | > 40
CC(C)(O)C(=O)Nc1nc2ccc(-c3ccnc(OCc4ccccc4)n3)cc2s1 [Example 55, N-(6-(2-(benzyloxy)-4-pyrimidinyl)-1,3-benzothiazol-2-yl)-2-hydroxy-2-methylpropanamide] | 26.7 | 7.75
CCC(=O)Nc1nc2ccc(-c3ccnc(OCc4ccccc4)n3)cc2s1 [Example 57, N-(6-(2-(benzyloxy)-4-pyrimidinyl)-1,3-benzothiazol-2-yl)propanamide] | 0.277 | 8.83
O=C(Nc1nc2ccc(-c3ccnc(OCc4ccccc4)n3)cc2s1)c1ccccc1 [Example 58, N-(6-(2-(benzyloxy)-4-pyrimidinyl)-1,3-benzothiazol-2-yl)benzamide] | > 40 | 3.93
CN(C)CC(=O)Nc1nc2ccc(-c3ccnc(OCc4ccccc4)n3)cc2s1 [Example 59, N-(6-(2-(benzyloxy)-4-pyrimidinyl)-1,3-benzothiazol-2-yl)-N~2~,N~2~-dimethylglycinamide] | 11.3 | 9.8
COc1ccc(S(=O)(=O)c2ncc(-c3ccc4nc(NC(C)=O)sc4c3)s2)cc1 [Example 61, N-(6-(2-(4-methoxyphenylsulfonyl)thiazol-5-yl)benzo[d]thiazol-2-yl)acetamide] | 38.8 | 31
CC(=O)Nc1nc2ccc(-c3csc(S(=O)(=O)c4ccccc4F)n3)cc2s1 [Example 63, N-(6-(2-(2-fluorophenylsulfonyl)thiazol-4-yl)benzo[d]thiazol-2-yl)acetamide] | 0.556 | 4.69
CC(=O)Nc1nc2ccc(-c3csc(S(=O)(=O)c4ccccc4)n3)cc2s1 [Example 64, N-(6-(2-(phenylsulfonyl)thiazol-4-yl)benzo[d]thiazol-2-yl)acetamide] | 0.846 | > 40
CC(=O)Nc1nc2ccc(-c3cccc(S(=O)(=O)c4ccccc4)n3)cc2s1 [Example 65, N-(6-(6-(phenylsulfonyl)pyridin-2-yl)benzo[d]thiazol-2-yl)acetamide] | 0.221 | > 40
CC(=O)Nc1nc2ccc(-c3cccc(S(=O)(=O)c4cccc(F)c4)n3)cc2s1 [Example 67, N-(6-(6-((3-fluorophenyl)sulfonyl)-2-pyridinyl)-1,3-benzothiazol-2-yl)acetamide] | 0.3 | 3.35
COc1ccccc1S(=O)(=O)c1cccc(-c2ccc3nc(NC(C)=O)sc3c2)n1 [Example 70, N-(6-(6-((2-methoxyphenyl)sulfonyl)-2-pyridinyl)-1,3-benzothiazol-2-yl)acetamide] | 0.285 | 1.54
Nc1nc2ccc(-c3cccc(NS(=O)(=O)c4ccccc4)n3)cc2s1 [Example 71, N-(6-(2-Aminobenzo[d]thiazol-6-yl)pyridin-2-yl)benzenesulfonamide] | 3.83 | 1.44
CC(=O)Nc1nc2ccc(-c3ccnc(Cl)n3)cc2s1 [Example 105, N-(6-(2-chloro-4-pyrimidinyl)-1,3-benzothiazol-2-yl)acetamide] |  | 8.27
CC(=O)Nc1nc2ccc(-c3cccc(N)c3)nc2s1 [Example 156, N-(5-(3-aminophenyl)thiazolo[5,4-b]pyridin-2-yl)acetamide] | 0.641 | 
COc1ccc(S(=O)(=O)Nc2cccc(-c3ccc4nc(NC(C)=O)sc4c3)c2)cc1 [Example 260, N-(6-(3-(4-methoxyphenylsulfonamido)phenyl)benzo[d]thiazol-2-yl)acetamide] |  | 0.413
